The results in this text go back to patent US20230086702A1, “SUBSTITUTED 2-AMINO-PYRAZOLYL-[1,2,4]TRIAZOLO[1,5A]PYRIDINE DERIVATIVES AND USE THEREOF” (The Johns Hopkins University, priority 2019, published 2023).

The target of one test is T1, LZK (Homo sapiens, UniProt O43283).
T1 construct: 10 nM LZK, catalytic domain, Carna Biosiences in assay buffer; purchased Carna Biosciences ('Carna Biosiences' [sic])
T1 sequence (O43283 168-409 limits assumed): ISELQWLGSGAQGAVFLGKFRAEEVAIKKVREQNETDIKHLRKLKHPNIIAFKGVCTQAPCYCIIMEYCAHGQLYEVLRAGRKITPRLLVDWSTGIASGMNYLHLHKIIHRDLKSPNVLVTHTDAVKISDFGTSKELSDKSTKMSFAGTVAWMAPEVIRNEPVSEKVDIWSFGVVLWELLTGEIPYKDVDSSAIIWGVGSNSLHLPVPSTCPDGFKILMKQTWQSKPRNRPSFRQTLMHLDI
As to the kind of experiment: LZK biochemical assay (TR-FRET, MKK7 phosphorylation). The gist of the method: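 LZK catalytic domain (10 nM) phosphorylates His-MKK7 (15 nM) with 15 µM ATP, all final, for 90 min at RT in HEPES buffer pH 7.5 with MgCl2. Phospho-T275/S277 detected by TR-FRET (Eu anti-phospho donor, XL665 anti-His acceptor) after 16 h at 32 °C in EDTA stop buffer. Inhibition lowers the 665/Eu ratio.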
Background: Time-resolved FRET reads energy transfer from a long-lived donor to a nearby acceptor.

In a further test the target is T2, DLK (Homo sapiens, UniProt Q12852).
T2 construct: 10 nM DLK, catalytic domain, Carna Biosiences; purchased Carna Biosciences ('Carna Biosiences' [sic])
T2 sequence (Q12852 125-366 limits assumed): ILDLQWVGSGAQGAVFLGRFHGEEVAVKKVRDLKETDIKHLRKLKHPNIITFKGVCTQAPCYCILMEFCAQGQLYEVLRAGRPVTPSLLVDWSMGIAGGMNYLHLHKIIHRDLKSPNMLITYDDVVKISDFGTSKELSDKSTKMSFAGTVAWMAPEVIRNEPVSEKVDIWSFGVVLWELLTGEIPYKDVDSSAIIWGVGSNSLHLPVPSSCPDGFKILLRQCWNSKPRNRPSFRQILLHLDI
As to the kind of experiment: DLK biochemical assay (TR-FRET, MKK7 phosphorylation). The gist of the method:
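DLK catalytic domain (10 nM) phosphorylates His-MKK7 (15 nM) at 60 μM ATP for 90 min at RT in pH 7.5 Hepes buffer (final concentrations). Phospho-T275/S277 is detected by TR-FRET (Eu anti-phospho donor, XL665 anti-His acceptor) after 16 h at 37° C (1536 format) or 4° C (384 format).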

What is called IC50 is the midpoint of a concentration-inhibition curve. A high value points to weaker potency.

The structures appear in SMILES notation.

As for `CC[C@@H](c1ccc(C(F)(F)F)nc1)n1cc(-c2cc(-c3ccc(=O)n(CC(F)(F)F)c3)n3nc(N)nc3c2)cn1` [II-190], the IC50 came to 5.4 nM at LZK and 2.9 nM at DLK.

Consider `CN(C)c1cccc(-c2cc(-c3cnn(C(c4ccc(C(F)(F)F)nc4)C4CCOCC4)c3)cn3nc(N)nc23)c1` (single isomer, unassigned) [II-24, 8-[3-(Dimethylamino)phenyl]-6-(1-{tetrahydro-2H-pyran-4-yl[6-(trifluoromethyl)pyridin-3-yl]methyl}-1H-pyrazol-4-yl)[1,2,4]triazolo[1,5-a]pyridin-2-amine], for which the concentration for half-maximal inhibition (IC50) on LZK is 2.3 nM; on DLK it was 0.5 nM.

For the molecule `CC(C)C(c1ccc(C(F)(F)F)nc1)n1cc(-c2cc(-c3ccc(C4CC4)nc3)n3nc(N)nc3c2)cn1` (racemic) [II-58, 5-(6-Cyclopropylpyridin-3-yl)-7-(1-{2-methyl-1-[6-(trifluoromethyl)pyridin-3-yl]propyl}-1H-pyrazol-4-yl)[1,2,4]triazolo[1,5-a]pyridin-2-amine], the IC50 on LZK is 22 nM; on DLK, 21 nM.

As for `CC(C)C(c1ccc(C(F)(F)F)nc1)n1cc(-c2cc(-c3ccc(C4CC4)nc3)c3nc(N)nn3c2)cn1` (single isomer, unassigned) [II-45, 8-(6-Cyclopropylpyridin-3-yl)-6-(1-{2-methyl-1-[6-(trifluoromethyl)pyridin-3-yl]propyl}-1H-pyrazol-4-yl)[1,2,4]triazolo[1,5-a]pyridin-2-amine], the half-inhibitory concentration (IC50) against LZK was 10 nM; at DLK, 9.5 nM.

Turning to `CC[C@@H](c1ccccc1)n1cc(-c2cc(-c3cnn(C(C)C(F)(F)F)c3)c3nc(N)nn3c2)cn1` (single isomer, unassigned) [II-95], the IC50 at LZK is 40 nM; at DLK, 5.6 nM.

On to `CC[C@@H](c1ccccc1)n1cc(-c2cc(-c3cnn(CC(F)(F)F)c3)c3nc(N)nn3c2)cn1` [II-93, 6-{1-[(1S)-1-Phenylpropyl]-1H-pyrazol-4-yl}-8-[1-(2,2,2-trifluoroethyl)-1H-pyrazol-4-yl][1,2,4]triazolo[1,5-a]pyridin-2-amine], for which the IC50 against LZK amounted to 68 nM; at DLK, 19 nM.

Take `CC(C)C(c1ccc(C(F)F)nc1)n1cc(-c2cc(-c3ccc(C(F)(F)F)nc3)n3nc(N)nc3c2)cn1` (racemic) [II-64, 7-(1-{1-[6-(Difluoromethyl)pyridin-3-yl]-2-methylpropyl}-1H-pyrazol-4-yl)-5-[6-(trifluoromethyl)pyridin-3-yl][1,2,4]triazolo[1,5-a]pyridin-2-amine]: the results for the IC50 against LZK and against DLK were 59 nM and 40 nM, respectively.

Take `CCC(c1ccc(C(F)(F)F)nc1)n1cc(-c2cc(-c3ccc(C4CC4)nc3)n3nc(N)nc3c2)cn1` (single isomer, unassigned) [II-56, 5-(6-Cyclopropylpyridin-3-yl)-7-(1-{1-[6-(trifluoromethyl)pyridin-3-yl]propyl}-1H-pyrazol-4-yl)[1,2,4]triazolo[1,5-a]pyridin-2-amine]: the IC50 against LZK came to 56 nM; on DLK, 37 nM.

Turning to `Nc1nc2cc(-c3cnn(Cc4ccccc4)c3)cc(-c3cnn(CC4CC4(F)F)c3)n2n1` (centres unmarked) [II-124], the half-inhibitory concentration (IC50) worked out at 73 nM on LZK and 7.1 nM against DLK.

Regarding `CCC(c1ccc(C(F)(F)F)nc1)n1cc(-c2cc(-c3ccnc(OC(F)F)c3)c3nc(N)nn3c2)cn1` (single isomer, unassigned) [II-26, 8-[2-(Difluoromethoxy)pyridin-4-yl]-6-(1-{1-[6-(trifluoromethyl)pyridin-3-yl]propyl}-1H-pyrazol-4-yl)[1,2,4]triazolo[1,5-a]pyridin-2-amine], the IC50 against LZK was 150 nM; on DLK, 210 nM.

Regarding `CC(C)C(c1ccc(C(F)(F)F)nc1)n1cc(-c2cc(-c3ccc(OC4CC4)nc3)n3nc(N)nc3c2)cn1` (racemic) [II-48, 5-[6-(Cyclopropyloxy)pyridin-3-yl]-7-(1-{2-methyl-1-[6-(trifluoromethyl)pyridin-3-yl]propyl}-1H-pyrazol-4-yl)[1,2,4]triazolo[1,5-a]pyridin-2-amine], the IC50 on LZK was found to be 11 nM; against DLK it was 7.5 nM.

For the molecule `CC(C)C(c1ccc(C(F)(F)F)nc1)n1cc(-c2cc(-c3ccc(C4(O)CCC4)nc3)n3nc(N)nc3c2)cn1` (single isomer, unassigned) [II-81, 1-{5-[2-Amino-7-(1-{2-methyl-1-[6-(trifluoromethyl)pyridin-3-yl]propyl}-1H-pyrazol-4-yl)[1,2,4]triazolo[1,5-a]pyridin-5-yl]pyridin-2-yl}cyclobutan-1-ol], the results for the IC50 against LZK and against DLK were 2.4 nM and 4 nM, respectively.

On to `CCC(c1ccc(OC(F)(F)F)nc1)n1cc(-c2cc(-c3cnn(CC(F)(F)F)c3)n3nc(N)nc3c2)cn1` (racemic) [II-114, 5-[1-(2,2,2-Trifluoroethyl)-1H-pyrazol-4-yl]-7-(1-{1-[6-(trifluoromethoxy)pyridin-3-yl]propyl}-1H-pyrazol-4-yl)[1,2,4]triazolo[1,5-a]pyridin-2-amine], for which the IC50 against LZK is 42 nM; on DLK, 46 nM.

For the molecule `CC[C@@H](c1ccc(F)cc1)n1cc(-c2cc(-c3cnn(CC(F)(F)F)c3)n3nc(N)nc3c2)cn1` [II-128], the values for the IC50 against LZK and against DLK were 160 nM and 15 nM, respectively.

On to `CC(C)C(c1ccc(C(F)(F)F)nc1)n1cc(-c2cc(-c3cnn(CC4CC4(F)F)c3)n3nc(N)nc3c2)cn1` (centres unmarked) [II-142], for which the IC50 against LZK turned out to be 12 nM; on DLK it was 8.4 nM.

Regarding `Nc1nc2cc(-c3cnn(C(c4ccc(C(F)(F)F)nc4)C4CCOCC4)c3)cc(-c3cn(CC(F)(F)F)c(=O)cn3)n2n1` (single isomer, unassigned) [II-196, 5-[2-Amino-7-(1-{tetrahydro-2H-pyran-4-yl[6-(trifluoromethyl)pyridin-3-yl]methyl}-1H-pyrazol-4-yl)[1,2,4]triazolo[1,5-a]pyridin-5-yl]-1-(2,2,2-trifluoroethyl)pyrazin-2(1H)-one], the results for the IC50 against LZK and against DLK were 50 nM and 16 nM, respectively.

As for `Nc1nc2c(-c3ccn(CC(F)(F)F)c(=O)c3)cc(-c3cnn(C(c4ccc(C(F)(F)F)nc4)C4CCOCC4)c3)cn2n1` (single isomer, unassigned) [II-176, 4-[2-Amino-6-(1-{tetrahydro-2H-pyran-4-yl[6-(trifluoromethyl)pyridin-3-yl]methyl}-1H-pyrazol-4-yl)[1,2,4]triazolo[1,5-a]pyridin-8-yl]-1-(2,2,2-trifluoroethyl)pyridin-2(1H)-one], the results for the IC50 at LZK and on DLK were 5.6 nM and 1.6 nM, respectively.

For the molecule `CC[C@@H](c1ccccc1)n1cc(-c2cc(-c3cnn(C(C)C(F)(F)F)c3)c3nc(N)nn3c2)cn1` (single isomer, unassigned) [II-96], the IC50 against LZK was 60 nM; on DLK it was 17 nM.

For `CC(C)C(c1ccc(C(F)(F)F)nc1)n1cc(-c2cc(-c3cnn(C4CCCC4)c3)n3nc(N)nc3c2)cn1` (single isomer, unassigned) [II-144, 5-(1-Cyclopentyl-1H-pyrazol-4-yl)-7-(1-{2-methyl-1-[6-(trifluoromethyl)pyridin-3-yl]propyl}-1H-pyrazol-4-yl)[1,2,4]triazolo[1,5-a]pyridin-2-amine], the results for the IC50 on LZK and against DLK were 57 nM and 27 nM, respectively.
